# Results as given in patent US20210283087A1, “METHOD FOR TREATING AND RELIEVING MYOPIA” (China Medical University, priority 2014, published 2021).
# What was measured:
# [1] = system: monocular form deprivation (MFD) Syrian hamster; test: Refractive power in monocular form deprivation (MFD) hamster model, streak retinoscope; format: in vivo, golden Syrian hamsters; conditions: LPS or 500 ng/mL PGN every second day for 21 days
# [2] = system: monocular form deprivation (MFD) Syrian hamster; test: as above; format: in vivo, golden Syrian hamsters; conditions: for Myopia in the non-MFD eye: LPS and PGN but not PBS treatment; for Refractive power, BL: left eye before MFD / Refractive power, BR: right eye before MFD: LPS or PGN group, baseline; for Refractive error FR-BR / Refractive error FL-BL: LPS or PGN; for Refractive error FR-BR: MFD right eye; for Refractive error FL-BL: non-MFD left eye
# Method: In this study, a total of 160 golden Syrian hamsters aged 3 weeks, weighing 80 to 90 g, and 20 albino guinea pigs, aged 2 to 3 weeks, were used for experiments. All animals were kept in a 12-hour light/dark cycle. All procedures were approved by the Institutional Animal Care and Use Committee of China Medical University and were conducted in accordance with the guidelines of the Use of Animals in Ophthalmic and Vision Research. Hamsters were raised with a right eyelid fusion for 21 days. Myopia was induced in the guinea pigs by covering the right eye with a cloth attached to the skin at a distance of at least 1 cm from the eye. MFD was induced in the right eye (with the left eye serving as a control) of animals randomly assigned to treatment or control groups (n=10 animals each) receiving daily applications of drug or phosphate-buffered saline (PBS), respectively, to both eyes.
# (§1) The RE (i.e., spherical-component RE, which is defined as the mean RE in horizontal and vertical meridians) was measured using a hand-held streak retinoscope. Animals were anesthetized with 10% ether in O2. Ocular refraction was evaluated at the start and end of the experiment. At the end of the study, animals were sacrificed through CO2 asphyxiation according to the guidelines of the Public Health Service, Office of Laboratory Animal Welfare, National Institutes of Health, and American Association of Veterinary Medicine. Eyes were enucleated using a razor blade on an ice plate under a surgical microscope (Topcon, Tokyo, Japan) by cutting perpendicularly to the anterior-posterior axis approximately 1 mm posterior to the ora serrata. The iris and ciliary body of the anterior segment of the eye were separated. Posterior sclera was excised using a 7-mm-diameter trephine. The axial lengths were determined through A-scan ultrasonography (PacScan 300 Plus, NY, USA). The average of 10 unique measurements was used.
# Syrian hamster = test: Refractive power of hamsters without MFD after LPS or PGN; format: in vivo; conditions: for Refractive power, BL: left eye before treatment / Refractive power, BR: right eye before treatment: LPS or PGN group, baseline; for Refractive power, FL: left eye after treatment / Refractive power, FR: right eye after treatment / Refractive error FL-BL / Refractive error FR-BR: LPS or PGN; for Refractive power, FL: left eye after treatment / Refractive power, FR: right eye after treatment: 21 days; for Refractive error FL-BL: left eye; for Refractive error FR-BR: right eye
# Method: as §1
# To further test this possibility, LPS and PGN were applied to the eyes of hamsters without MFD.
# [3] = system: sclera and retina of hamster eyes; test: Immunohistochemistry of hamster eyes (sclera, retina); format: in vivo; conditions: for c-Fos and NF-κB expression / MMP2 and TGF-β expression / TGF-β and MMP2 expression: LPS or PGN; for IL-10 and TNF-α levels: LPS or PGN treatment; for MMP2 and TGF-β expression: MFD hamsters; for TGF-β and MMP2 expression: hamsters without MFD
# Method: (§2) Antigen retrieval was performed by boiling the slides in citrate buffer (pH 6.0); the sections were then stained with antibodies against IL-6, TNF-α, TGF-β, MMP2, c-Fos, NF-κB, and CHRM1 and 3. The EnVision System peroxidase kit (DAKO, Carpentaria, Calif., USA) was used to visualize immunoreactivity.
# MMP2 = test: Gelatin zymography of MMP2 activity in LPS-activated scleral fibroblasts and ARPE-19 cells; format: cell-based; conditions: LPS + 100 μM atropine or LPS + 50 μM diacerein; 48 hours
# Method: To facilitate subsequent analysis, 1×10^6 cells were seeded in 24-well plates for at least 12 hours. […] To measure the MMP-2/MMP-9 activities, samples were separated using 8% SDS-PAGE containing 0.1% gelatin.
# [4] = system: LEWIS rats, right eye induced myopia by FDM; test: Refractive error and axial length in FDM myopia LEWIS rats (diclofenac); format: in vivo
# Method: Four weeks LEWIS rats were used in this example. […] The refractive error and axial length of right eye were measured by refractometer within three weeks and recorded in Table 14.
# [5] = system: MFD-induced myopia in hamster; test: Effect of resveratrol on MFD-induced myopia in hamster (refractometer); format: in vivo; conditions: for Diopter, left eye (mean ± SD) / Diopter, right myopic eye (mean ± SD): 21 days
# Method: 0.1141 g resveratrol (purchased from Sigma Aldrich Co.) powder was dissolved in 6 ml of ethanol to obtain resveratrol liquid. 1.46 g β-cyclodextrin (purchased from Sigma Aldrich Co.) was dissolved in 2 ml of sterile water to obtain a β-cyclodextrin solution (as a co-solvent); resveratrol liquid and β cyclodextrin were mixed in mole number of 1:2 by slowly adding dropwise β cyclodextrin solution into resveratrol liquid to form a mixture. The mixture was frozen drained, and then 5 ml artificial tears were added (purchased from Alcon company) to be re-dissolved to obtain 100 mM resveratrol solution. Resveratrol solution can be diluted by fetal bovine serum medium or artificial tears for various embodiments.
# The refractive powers of hamsters were measured before experiment by refractometer (in China Medical University Hospital Department of Ophthalmology). The hamsters were administered artificial tears (referred to as control group) or various concentrations (3 mM, 30 mM, 100 mM) of resveratrol (experimental group) for five hamsters each group. The right eyes of the hamsters of each group were stitched; after 21 days, the stitches were all removed and then the refractive powers of each hamster were measured.
# [6] = system: monocyte chemoattractant protein-1 (MCP-1); test: LPS-induced MCP-1 expression in human retinal pigment epithelial cells; format: cell-based; conditions: 50 μM resveratrol and 1 μg/ml LPS for 24 hours
# Method: Human retinal pigment epithelial cells were as model cells under LPS stimulation for 24 hours to induce inflammation and monocyte chemoattractant protein-1 (MCP-1), and then resveratrol was administered to detect the effect of suppressing inflammatory response.
# [7] = system: sclera and retina of hamster eyes; test: Immunohistochemical analysis of COL1, TGF-β, TNF-α in resveratrol-treated hamster eyes; format: in vivo; conditions: 100 mM resveratrol
# Method: as §2, with “[…] Antigen” for “Antigen”
# [8] = system: Human retinal pigment epithelium; test: Western blot of phosphorylated Akt and ERK after LPS in human retinal pigment epithelium; format: cell-based; conditions: 50 μM resveratrol pretreatment, then 500 ng/ml LPS
# Method: Human retinal pigment epithelium was administrated 500 ng/ml LPS for 30 minutes to observe the expression of Akt and ERK.
# Retinal cell (R28) = test: Gene expression by real-time PCR in LPS-treated R28 retinal cells; format: cell-based, rat; conditions: R28; 100 ng/ml LPS for 4 hours
# Method: (§3) R28 rat retinal epithelial cells were provided by Gail Seigel at the Ross Eye Institute (SUNY, Buffalo, N.Y., USA). The cells were cultured in Dulbecco's modified Eagle's medium (DMEM) with 10% fetal bovine serum (FBS) at 37° C. and 5% CO2, with medium replacement every 3 days to 4 days. Sclera were placed in a 60-mm culture dish in DMEM supplemented with 10% FBS to isolate primary scleral fibroblasts; those from fewer than three passages were used in experiments. […] Cell lysates were collected for quantitative (q)PCR to determine gene expression levels.
# (§4) Total RNA was extracted using the RNeasy MiniKit (Qiagen, Valencia, Calif., USA), and 5 μg of RNA was reverse-transcribed to cDNA by using the Superscript First Strand Synthesis system (Invitrogen, Carlsbad, Calif., USA). Primers and probes used for qPCR were selected from the Universal Probes Library (Roche, West Sussex, UK). Transcript levels were normalized to those of glyceraldehyde 3-phosphate dehydrogenase in each sample.
# Sclera fibroblast = test: Gene expression by real-time PCR in LPS-treated primary scleral fibroblasts; format: cell-based, hamster; conditions: sclera fibroblast; 100 ng/ml LPS for 4 hours
# Method: as §3, §4
# [9] = 3 × diclofenac (3 mg/ml solution), right eye, three weeks, mean ± standard error
compound,measurement,setting,value
peptidoglycan [PGN],"Refractive power, FL: left eye after MFD",[1],6.78±0.63 D
same,"Refractive power, FR: right eye after MFD (occluded eye)",[1],6.47±0.39 D
same,Myopia in the non-MFD eye,[2],induced
same,"Refractive power, BL: left eye before MFD",[2],11.73 ± 0.25 D
same,"Refractive power, BR: right eye before MFD",[2],11.48 ± 0.49 D
same,Refractive error FR-BR,[2],−4.90 ± 0.83 D
same,Refractive error FL-BL,[2],−5.03 ± 0.43 D
same,"Refractive power, BL: left eye before treatment",Syrian hamster,12.22 ± 0.35 D
same,"Refractive power, BR: right eye before treatment",Syrian hamster,12.17 ± 1.04 D
same,"Refractive power, FL: left eye after treatment",Syrian hamster,8.67±0.63 D
same,"Refractive power, FR: right eye after treatment",Syrian hamster,9.14±1.21 D
same,Refractive error FL-BL,Syrian hamster,−3.55 ± 0.35 D
same,Refractive error FR-BR,Syrian hamster,−3.03 ± 1.04 D
same,c-Fos and NF-κB expression,[3],stimulated
same,IL-10 and TNF-α levels,[3],increased
same,MMP2 and TGF-β expression,[3],upregulation
same,TGF-β and MMP2 expression,[3],upregulation
CC(=O)Oc1cccc2c1C(=O)c1c(OC(C)=O)cc(C(=O)O)cc1C2=O [diacerein],MMP2 activities in cells activated by LPS,MMP2,decreased
O=C(O)Cc1ccccc1Nc1c(Cl)cccc1Cl [diclofenac],"Inhibitory effect on myopia, comparison of concentrations",[4]; 3 mg/ml vs 6 mg/ml,better in the concentration of 3 mg/ml than in 6 mg/ml
same,Δ Axial length,[4]; [9],1.04 ± 0.39 mm
same,Δ Refractive error,[4]; [9],5.36 ± 4.05 D
same,Δ Axial length,"[4]; 6 × diclofenac (6 mg/ml solution), right eye, three weeks, mean ± standard error",1.24 ± 0.55 mm
same,Effect on myopia process,[4]; diclofenac solution 3 mg/ml and 6 mg/ml,significant inhibitory effect
Oc1ccc(C=Cc2cc(O)cc(O)c2)cc1 [resveratrol],"Diopter, left eye (mean ± SD)",[5]; 3 mM resveratrol,−0.17 ± 0.24 Diopter
same,"Diopter, right myopic eye (mean ± SD)",[5]; 3 mM resveratrol,−2.42 ± 1.30 Diopter
same,"Diopter, left eye (mean ± SD)",[5]; 30 mM resveratrol,−0.63 ± 0.41 Diopter
same,"Diopter, right myopic eye (mean ± SD)",[5]; 30 mM resveratrol,−2.46 ± 0.65 Diopter
same,"Diopter, left eye (mean ± SD)",[5]; 100 mM resveratrol,−0.25 ± 1.53 Diopter
same,"Diopter, right myopic eye (mean ± SD)",[5]; 100 mM resveratrol,−1.13 ± 1.47 Diopter
same,"Inhibition of myopia, comparison of concentrations",[5]; 100 mM vs 3 mM and 30 mM,most effective
same,Expression of MCP-1,[6],decreasing
same,TNF-α expression in the retina,[7],follows the same trend as TGF-β
same,Collagen I protein expression in the sclera,[7]; stitched right eye,recovered
same,TGF-β expression in the retina,[7]; stitched right eye,reduction effect
same,Expression of phosphorylated Akt and ERK,[8],decrease
lipopolysaccharide [LPS],"Refractive power, FL: left eye after MFD",[1],7.79±0.88 D
same,"Refractive power, FR: right eye after MFD (occluded eye)",[1],6.44±0.18 D
same,Myopia in the non-MFD eye,[2],induced
same,"Refractive power, BL: left eye before MFD",[2],11.92 ± 0.56 D
same,"Refractive power, BR: right eye before MFD",[2],12.30 ± 0.48 D
same,Refractive error FR-BR,[2],−5.9 ± 0.54 D
same,Refractive error FL-BL,[2],−4.13 ± 0.9 D
same,"Refractive power, BL: left eye before treatment",Syrian hamster,12.28 ± 0.97 D
same,"Refractive power, BR: right eye before treatment",Syrian hamster,12.25 ± 0.57 D
same,"Refractive power, FL: left eye after treatment",Syrian hamster,8.33±0.96 D
same,"Refractive power, FR: right eye after treatment",Syrian hamster,8.56±0.42 D
same,Refractive error FL-BL,Syrian hamster,−3.95 ± 0.97 D
same,Refractive error FR-BR,Syrian hamster,−3.69 ± 0.57 D
same,Chrm 1 gene expression level,Retinal cell (R28),1.39 ± 0.13
same,Chrm 2 gene expression level,Retinal cell (R28),0.45 ± 0.23
same,Chrm 3 gene expression level,Retinal cell (R28),1.27 ± 0.2
same,Chrm 4 gene expression level,Retinal cell (R28),0.94 ± 0.15
same,Chrm5 gene expression level,Retinal cell (R28),0.75 ± 0.21
same,Fos gene expression level,Retinal cell (R28),1.39 ± 0.11
same,IL1b gene expression level,Retinal cell (R28),4.3 ± 0.25
same,IL10 gene expression level,Retinal cell (R28),0.56 ± 0.19
same,IL-6 gene expression level,Retinal cell (R28),2.63 ± 0.15
same,MMP2 gene expression level,Retinal cell (R28),1.32 ± 0.13
same,NFkB gene expression level,Retinal cell (R28),1.13 ± 0.11
same,Tgfb1 gene expression level,Retinal cell (R28),1.18 ± 0.12
same,Tnfa gene expression level,Retinal cell (R28),1.56 ± 0.17
same,Chrm 1 gene expression level,Sclera fibroblast,1.49 ± 0.18
same,Chrm 2 gene expression level,Sclera fibroblast,1.48 ± 0.17
same,Chrm 3 gene expression level,Sclera fibroblast,1.58 ± 0.15
same,Chrm 4 gene expression level,Sclera fibroblast,1.07 ± 0.23
same,Chrm5 gene expression level,Sclera fibroblast,0.93 ± 0.15
same,Fos gene expression level,Sclera fibroblast,1.00 ± 0.11
same,IL1b gene expression level,Sclera fibroblast,2.84 ± 0.21
same,IL10 gene expression level,Sclera fibroblast,0.56 ± 0.19
same,IL-6 gene expression level,Sclera fibroblast,3.02 ± 0.16
same,MMP2 gene expression level,Sclera fibroblast,1.79 ± 0.17
same,NFkB gene expression level,Sclera fibroblast,4.50 ± 0.27
same,Tgfb1 gene expression level,Sclera fibroblast,2.15 ± 0.23
same,Tnfa gene expression level,Sclera fibroblast,1.49 ± 0.15
same,c-Fos and NF-κB expression,[3],stimulated
same,IL-10 and TNF-α levels,[3],increased
same,MMP2 and TGF-β expression,[3],upregulation
same,TGF-β and MMP2 expression,[3],upregulation
